Consider ten compounds from paper PMC10218941, “Design, Synthesis, Antiproliferative Actions, and DFT Studies of New Bis–Pyrazoline Derivatives as Dual EGFR/BRAF^V600E Inhibitors” (International Journal of Molecular Sciences, 2023).

The subject of series [1] is HT-29 (colon cancer cell line). In words: Antiproliferative assay (MTT), HT-29. The format is cell-based. The following applies: Homo sapiens, read-out: Antiproliferative Activity IC50 ± SEM (µM) HT-29. The procedure: (§1) The antiproliferative activity of pyrazoline hybrids 8–17 was tested against the four human cancer cell lines Panc-1 (pancreatic cancer cell line), MCF-7 (breast cancer cell line), HT-29 (colon cancer cell line), and A-549 (lung cancer cell line) using the MTT assay and doxorubicin as the reference drug. See Appendix SA (Supplementary File). […]
(§2) 4.2.1.2. Assay for antiproliferative effect
(§3) To explore the antiproliferative potential of compounds propidium iodide fluorescence assay was performed using different cell lines such as Panc -1 (pancreas cancer cell line), MCF-7 (breast cancer cell line), HT-29 (colon cancer cell line) and A-549 (epithelial cancer cell line), respectively. To calculate the total nuclear DNA, a fluorescent dye (propidium iodide, PI) is used which can attach to the DNA, thus offering a quick and precise technique. PI cannot pass through the cell membrane and its signal intensity can be considered as directly proportional to quantity of cellular DNA. Cells whose cell membranes are damaged or have changed permeability are counted as dead ones. The assay was performed by seeding the cells of different cell lines at a density of 3000-7500 cells/well (in200μl medium) in culture plates followed by incubation for 24h at 37 °C in humidified 5%CO2/95% air atmospheric conditions. The medium was removed; the compounds were added to the plates at 10 μM concentrations (in 0.1% DMSO) in triplicates, followed by incubation for 48h. DMSO (0.1%) was used as control. After incubation, medium was removed followed by the addition of PI (25 μl, 50μg/mL in water/medium) to each well of the plates. At - 80 °C, the plates were allowed to freeze for 24 h, followed by thawing at 25 °C. A fluorometer (Polar-Star BMG Tech) was used to record the readings at excitation and emission wavelengths of 530 and 620 nm for each well. The percentage cytotoxicity of compounds was calculated using […]
(§4) Where ATC= Absorbance of treated cells and AC= Absorbance of control. Erlotinib was used as positive control in the assay. […]

Series [2] deals with MCF-7 (breast cancer cell line). Put plainly: Antiproliferative assay (MTT), MCF-7. The format is cell-based. The following applies: Homo sapiens, MCF7; read-out: Antiproliferative Activity IC50 ± SEM (µM) MCF-7. The procedure: (§5) The antiproliferative activity of pyrazoline hybrids 8–17 was tested against the four human cancer cell lines Panc-1 (pancreatic cancer cell line), MCF-7 (breast cancer cell line), HT-29 (colon cancer cell line), and A-549 (lung cancer cell line) using the MTT assay and doxorubicin as the reference drug. See Appendix SA (Supplementary File).
(§6) 4.2. Biological evaluation
(§7) 4.2.1. Cytotoxic activity using MTT Assay and evaluation of IC50 […]
(§8) 96-well flat-bottomed cell culture plates were used to seed the cells at a […]
(§9) of 10^4 cells mL-1. The medium was aspirated from all the wells of culture plates after 24 h followed by the addition of synthesized compounds (in 200 μL medium to yield a final concentration of 0.1% (v/v) dimethyl sulfoxide) into individual wells of the plates. Four wells were designated to a single compound. The plates were allowed to incubate at 37°C for 96 h. Afterwards, the medium was aspirated and 3 -[4,5-dimethylthiazol-2-yl]-2,5-diphenyltetrazolium bromide (MTT) (0.4 mg/mL) in medium was added to each well and subsequent ly incubated for 3 h. The medium was aspirated and 150 μL dimethyl sulfoxide (DMSO) was added to each well. The plates were vortexed followed by the measurement of absorbance at 540 nm on a microplate reader. The results were presented as inhibition (%) of proliferation in contrast to controls comprising 0.1% 4.2.1.2. Assay for antiproliferative effect
as §3, §4

Series [3] relates to A-549 (lung cancer cell line). Put plainly: Antiproliferative assay (MTT), A-549. In kind it is cell-based. As to conditions: Homo sapiens, A549; read-out: Antiproliferative Activity IC50 ± SEM (µM) A-549. As for the experimental part:
as §5, §6, §7, §8, §9, §3, §4

Series [4] can be described thus: Cell viability assay (MTT) on normal mammary epithelial cells. In kind it is cell-based. The following applies: human, MCF-10A normal mammary gland epithelial cells, MCF-10A cells, four days. As for the experimental part: To test the viability of new substances, the epithelial (MCF-10A) cell line of the normal human mammary gland was used. Compounds 8–17 were incubated for four days on MCF-10A cells before being tested for viability using the MTT assay. According to Table 1, none of the substances tested were cytotoxic, and cell viability at 50 µM was greater than 87% for the compounds tested.
The normal human mammary gland epithelial (MCF-10A) cell line was used to test the viability of new compounds [46, 47]. See Appendix SA (Supplementary File).
as §6
4.2.1. Cytotoxic activity using MTT Assay and evaluation of IC50
MTT assay was performed to investigate the effect of the synthesized compounds on mammary epithelial cells (MCF-10A). The cells were propagated in medium consisting of Ham's F-12 medium/ Dulbecco's modified Eagle's medium (DMEM) (1:1) supplemented with 10% foetal calf serum, 2 mM glutamine, insulin (10 μg/mL), hydrocortisone (500 ng/mL) and epidermal growth factor (20 ng/mL). Trypsin ethylenediamine tetra acetic acid (EDTA) was used to passage the cells after every 2-3 days. 96-well flat-bottomed cell culture plates were used to seed the cells at a […]
as §9, with “The results were presented as inhibition (%) of proliferation in contrast to controls comprising 0.1% 4.2.1.2. Assay for antiproliferative effect” left out

Series [5] concerns Panc-1 (pancreatic cancer cell line). Put plainly: Antiproliferative assay (MTT), Panc-1. The format is cell-based. The following applies: Homo sapiens, read-out: Antiproliferative Activity IC50 ± SEM (µM) Panc-1. As for the experimental part:
as §1, §2, §3, §4

The subject of series [6] is four human cancer cell lines (A-549, MCF-7, Panc-1, HT-29). Put plainly: Antiproliferative assay, mean of four cancer cell lines (GI50). In kind it is cell-based. The following applies: mean over A-549, MCF-7, Panc-1, HT-29.
Series [7] deals with T1, EGFR (Homo sapiens, UniProt P00533).
T1 construct: 645–1186); His6 (N); made in house; host or cells: Sf-9 insect cells (baculovirus; pBlueBacHis2B / pFASTBacHTc
T1 sequence (P00533 669-1210): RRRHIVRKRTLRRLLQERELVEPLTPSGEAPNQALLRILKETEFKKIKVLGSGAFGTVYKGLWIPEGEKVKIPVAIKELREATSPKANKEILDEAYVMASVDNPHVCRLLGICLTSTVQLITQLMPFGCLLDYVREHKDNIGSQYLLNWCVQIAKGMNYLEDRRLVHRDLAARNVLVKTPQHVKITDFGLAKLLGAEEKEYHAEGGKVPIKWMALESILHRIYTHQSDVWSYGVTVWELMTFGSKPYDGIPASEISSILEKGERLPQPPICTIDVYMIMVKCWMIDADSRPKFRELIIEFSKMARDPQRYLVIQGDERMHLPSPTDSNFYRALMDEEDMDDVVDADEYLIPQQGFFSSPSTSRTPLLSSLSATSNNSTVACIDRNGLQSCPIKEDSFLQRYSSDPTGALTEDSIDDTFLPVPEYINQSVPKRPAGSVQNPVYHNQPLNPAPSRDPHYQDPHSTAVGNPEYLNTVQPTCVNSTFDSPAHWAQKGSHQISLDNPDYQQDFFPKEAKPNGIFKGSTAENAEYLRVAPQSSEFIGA
On the set-up: method as in PMID 35424523. The following applies: cited from earlier work.

Series [8] deals with BRAF^V600E. On the set-up: method as in PMID 35424523. As to conditions: cited from earlier work.
Series [9] has as its target BRAF^V600E. In words: BRAF^V600E inhibitory assay.
Target sequence in this assay (P28028 whole entry V585E): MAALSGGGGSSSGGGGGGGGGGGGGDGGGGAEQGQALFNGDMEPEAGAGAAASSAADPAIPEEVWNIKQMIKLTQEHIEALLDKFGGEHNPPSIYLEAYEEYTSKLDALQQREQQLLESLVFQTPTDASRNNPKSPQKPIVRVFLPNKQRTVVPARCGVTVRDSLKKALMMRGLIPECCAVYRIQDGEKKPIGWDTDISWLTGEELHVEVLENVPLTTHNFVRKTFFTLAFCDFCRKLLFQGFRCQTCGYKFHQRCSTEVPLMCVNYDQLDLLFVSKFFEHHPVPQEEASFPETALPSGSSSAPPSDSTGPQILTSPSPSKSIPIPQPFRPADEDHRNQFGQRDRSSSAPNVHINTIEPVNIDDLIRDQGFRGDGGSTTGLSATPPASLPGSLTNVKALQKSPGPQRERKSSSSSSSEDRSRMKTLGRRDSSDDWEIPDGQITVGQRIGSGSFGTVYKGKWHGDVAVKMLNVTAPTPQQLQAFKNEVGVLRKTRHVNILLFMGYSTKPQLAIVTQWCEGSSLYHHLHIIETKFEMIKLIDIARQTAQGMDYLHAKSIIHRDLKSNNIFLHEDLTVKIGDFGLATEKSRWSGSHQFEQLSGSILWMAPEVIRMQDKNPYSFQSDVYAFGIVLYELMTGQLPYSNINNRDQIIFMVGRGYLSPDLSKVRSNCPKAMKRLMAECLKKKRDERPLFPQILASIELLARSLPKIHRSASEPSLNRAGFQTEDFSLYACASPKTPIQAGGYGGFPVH
Method: V600E mutant BRAF kinase assay was performed to investigate the activity of tested compounds against BRAF. Mouse full-length GST-tagged BRAFV600E (7.5 ng, Invitrogen, PV3849) was pre-incubated with drug (1 µL) and assay dilution buffer (4 µL) for 60 min at 25 °C. In assay dilution buffer, a solution (5 µL) containing MgCl2 (30 mM), ATP (200 µM), recombinant human full length (200 ng) and N-terminal His-tagged MEK1 (Invitrogen) was added to start the assay, subsequent to incubation for 25 min at 25 °C. The assay was stopped using 5X protein denaturing buffer (LDS) solution (5 µL). To further denature the protein, heat (70° C) was applied for 5 min.
10 µL of each reaction was loaded into the precast plates and electrophoresis was allowed to proceed. After completion of electrophoresis, the front part of the precast gel plate (holding hot ATP) was cut and afterwards cast-off. The dried gel was developed using a phosphor screen.
served as positive control.
For series [10], the target named is T1, EGFR. Put plainly: EGFR inhibitory assay. In kind it is biochemical. The following applies: read-out: EGFR Inhibition IC50 ± SEM. The procedure: 4.2.2. EGFR inhibitory assay
Baculoviral expression vectors including pBlueBacHis2B and pFASTBacHTc were used […]
(1 picture or pasted object on this page, not shown here)
5ʹ upstream to the EGFR sequence comprised a sequence that encoded (His)6. Sf-9 cells were infected for 72h for protein expression. The pellets of Sf-9 cells were solubilized in a buffer containing sodium vanadate (100 μM), aprotinin (10 μg/mL), triton (1%), HEPES […]
centrifugation for 20 min.
Histidine-linked proteins were first eluted with 250 and then […]
enhancement solution was added to each well and the signal was recorded at excitation and […]
The autophosphorylation percentage inhibition by compounds was calculated using the following equation: […]

Values joined by “and” are separate entries in the source; they are usually repeats but may differ in a detail not shown here. Identical values can stand only once. Like-named read-outs stand apart in the source and are kept apart here.

For orientation: IC50 means the concentration that gives 50% inhibition. The term viability denotes the share of living cells, or the viability signal relative to a control. For the compound `O=C(COc1ccc(C2=NNC(c3ccc(Cl)cc3)C2)cc1)Nc1ccc(C2=NNC(c3ccc(Cl)cc3)C2)cc1` (centres unmarked) [Compound 11, 2-(4-(5-(4-Chlorophenyl)-4,5-dihydro-1H-pyrazol-3-yl)phenoxy)-N-(4-(5-(4-chlorophenyl)-4,5-dihydro-1H-pyrazol-3-yl)phenyl)acetamide], the IC50 came to 3 ± 0.2 µM in [1]; 2.7 ± 0.2 µM in series [2]; 2.9 ± 0.2 µM in series [3]; 2.9 ± 0.2 µM in [5]; 2.9 µM in series [6]. The compound also had a viability at 96 h, 50 µM in [4] of 87%.

`COc1ccc(C2CC(c3ccc(OCC(=O)Nc4ccc(C5=NNC(c6ccc(C)cc6C)C5)cc4)cc3)=NN2)cc1` (centres unmarked) [Compound 13, 2-(4-(5-(4-Methoxyphenyl)-4,5-dihydro-1H-pyrazol-3-yl)phenoxy)-N-(4-(5-(2,4-dimethylphenyl)-4,5-dihydro-1H-pyrazol-3-yl)phenyl)acetamide]: the IC50 in [1] is 5 ± 0.4 µM; in series [2], 4.6 ± 0.4 µM; in series [3], 4.8 ± 0.4 µM; in [5], 4.9 ± 0.4 µM; in [6] it was 4.8 µM. For the same compound, the viability at 96 h, 50 µM in [4] was found to be 87%.

For `Cc1c(NC2=NC(=O)CS2)c(=O)n(-c2ccccc2)n1C` [I], the IC50 is 0.022 µM and 0.02 µM in [7]; 2.03 µM in series [8].

With `COc1cccc2c1C(=O)c1c(O)c3c(c(O)c1C2=O)C[C@@](O)(C(=O)CO)C[C@@H]3O[C@H]1C[C@H](N)[C@H](O)[C@H](C)O1` [Doxorubicin, reference compound], the IC50 amounted to 1.2 ± 0.03 µM in [1]; 0.9 ± 0.02 µM in series [2]; 1.4 ± 0.08 µM in [3]; 1 ± 0.02 µM in series [5]; 1.1 µM in series [6].

Consider `O=C(COc1ccc(C2=NNC(c3ccc(Cl)cc3)C2)cc1)Nc1ccc(C2=NNC(c3ccccc3)C2)cc1` (centres unmarked) [Compound 8, 2-(4-(5-(4-Chlorophenyl)-4,5-dihydro-1H-pyrazol-3-yl)phenoxy)-N-(4-(5-phenyl-4,5-dihydro-1H-pyrazol-3-yl)phenyl)acetamide], for which the IC50 in series [1] worked out at 4.5 ± 0.4 µM; in series [2] it was 4.1 ± 0.4 µM; in series [3] it was 4.3 ± 0.4 µM; in [5] it was 4.6 ± 0.4 µM; in series [6], 4.4 µM. The viability at 96 h, 50 µM in series [4] is 90%.

Consider `O=C(COc1ccc(C2=NNC(c3ccc(Cl)cc3)C2)cc1)Nc1ccc(C2=NNC(c3ccc(Br)cc3)C2)cc1` (centres unmarked) [Compound 10, 2-(4-(5-(4-Chlorophenyl)-4,5-dihydro-1H-pyrazol-3-yl)phenoxy)-N-(4-(5-(4-bromophenyl)-4,5-dihydro-1H-pyrazol-3-yl)phenyl)acetamide], for which the IC50 in series [1] turned out to be 3.1 ± 0.3 µM; in series [2] it was 2.9 ± 0.2 µM; in [3], 3.2 ± 0.3 µM; in [5] it was 3.2 ± 0.3 µM; in series [6] it was 3.1 µM. Moreover, the viability at 96 h, 50 µM in series [4] was 89%.

As to `COc1ccc(C2CC(c3ccc(OCC(=O)Nc4ccc(C5=NNC(c6ccc(F)cc6)C5)cc4)cc3)=NN2)cc1` (centres unmarked) [Compound 16, 2-(4-(5-(4-Methoxyphenyl)-4,5-dihydro-1H-pyrazol-3-yl)phenoxy)-N-(4-(5-(4-fluorophenyl)-4,5-dihydro-1H-pyrazol-3-yl)phenyl)acetamide], the concentration for half-maximal inhibition (IC50) in [1] is 3.9 ± 0.3 µM; in series [2], 3.5 ± 0.3 µM; in series [3], 3.7 ± 0.3 µM; in series [5] it was 3.8 ± 0.3 µM; in [6], 3.7 µM. Further, the viability at 96 h, 50 µM in series [4] was determined as 89%.

For the compound `COc1ccc(C2CC(c3ccc(OCC(=O)Nc4ccc(C5=NNC(c6ccc(Cl)cc6)C5)cc4)cc3)=NN2)cc1` (centres unmarked) [Compound 15, 2-(4-(5-(4-Methoxyphenyl)-4,5-dihydro-1H-pyrazol-3-yl)phenoxy)-N-(4-(5-(4-chlorophenyl)-4,5-dihydro-1H-pyrazol-3-yl)phenyl)acetamide], the IC50 was found to be 1.7 ± 0.1 µM in series [1]; 0.098 ± 0.008 µM in [9]; 1.2 ± 0.1 µM in series [2]; 0.093 ± 0.007 µM in series [10]; 1.4 ± 0.1 µM in series [3]; 1.7 ± 0.1 µM in series [5]. In series [6], this compound showed an IC50 of 1.5 µM. This compound also returned a viability at 96 h, 50 µM in series [4] of 90%.

Consider `COc1ccc(C2CC(c3ccc(OCC(=O)Nc4ccc(C5=NNC(c6ccc(Br)cc6)C5)cc4)cc3)=NN2)cc1` (centres unmarked) [Compound 14, 2-(4-(5-(4-Methoxyphenyl)-4,5-dihydro-1H-pyrazol-3-yl)phenoxy)-N-(4-(5-(4-bromophenyl)-4,5-dihydro-1H-pyrazol-3-yl)phenyl)acetamide], for which the IC50 came out at 2 ± 0.1 µM in series [1]; 0.125 ± 0.01 µM in series [9]; 1.6 ± 0.1 µM in [2]; 0.104 ± 0.009 µM in series [10]; 1.8 ± 0.1 µM in series [3]; 2 ± 0.1 µM in series [5]. In series [6], the IC50 was 1.85 µM. The same compound came in with a viability at 96 h, 50 µM in series [4] of 89%.

Regarding `COc1ccc(C2CC(c3ccc(NC(=O)COc4ccc(C5=NNC(c6ccc(Cl)cc6)C5)cc4)cc3)=NN2)cc1` (centres unmarked) [Compound 9, 2-(4-(5-(4-Chlorophenyl)-4,5-dihydro-1H-pyrazol-3-yl)phenoxy)-N-(4-(5-(4-methoxyphenyl)-4,5-dihydro-1H-pyrazol-3-yl)phenyl)acetamide], the IC50 is 2.5 ± 0.2 µM in [1]; 1.9 ± 0.1 µM in [2]; 2.2 ± 0.2 µM in series [3]; 2.6 ± 0.2 µM in series [5]; 2.3 µM in [6]. This compound showed a viability at 96 h, 50 µM in series [4] of 89%.
